Series [1] is described as follows: aqueous solubility of the crystalline form (statement only, no method). Particulars: qualitative statement, no conditions given. In kind it is physicochemical.
Series [2] in a line: chemical and physical stability of the crystalline form (statement only, no method). It is filed as physicochemical. Particulars: qualitative statement, no conditions given.

The results in this text go back to US20090131465A1, “Synthesis and crystalline forms of melanocortin-4 receptor agonist” (priority 2007, published 2009).

For the molecule `CC(=O)NC(C)(C)[C@@H]1CC2(CCN(C(=O)[C@@H]3CN(C(C)(C)C)C[C@H]3c3ccc(F)cc3F)CC2)c2cc(Cl)c(C)cc21.Cl` [N-[1-((3R)-1′-1′-{[(3S,4R)-1-tert-butyl-4-(2,4-difluorophenyl)pyrrolidine-3-yl]carbonyl}-6-chloro-5-methyl-2,3-dihydrospiro[indene-1,4′-piperidine]-3-yl)-1-methylethyl]acetamide], the aqueous solubility entry in series [1] was “good”. In addition, the “chemical and physical stability” value in series [2] is given as “good”.
